Data: ChEMBL document CHEMBL5154813 (Eur J Med Chem, 2022)
pEC50: −log10 of the molar value. Active and inactive are the calls of the source. The rule behind the calls is not given here.

What was measured:
[1] = target: T1, Peroxisome proliferator-activated receptor alpha (Homo sapiens) (UniProt Q07869); assay: Agonist activity at yeast Gal4-fused human PPARalpha LBD transfected in human HepG2 cells assessed as transactivation by measuring beta-galactosidase activity incubated for 20 hrs by luminometry relative to control; format: cell-based
T1 sequence (whole entry): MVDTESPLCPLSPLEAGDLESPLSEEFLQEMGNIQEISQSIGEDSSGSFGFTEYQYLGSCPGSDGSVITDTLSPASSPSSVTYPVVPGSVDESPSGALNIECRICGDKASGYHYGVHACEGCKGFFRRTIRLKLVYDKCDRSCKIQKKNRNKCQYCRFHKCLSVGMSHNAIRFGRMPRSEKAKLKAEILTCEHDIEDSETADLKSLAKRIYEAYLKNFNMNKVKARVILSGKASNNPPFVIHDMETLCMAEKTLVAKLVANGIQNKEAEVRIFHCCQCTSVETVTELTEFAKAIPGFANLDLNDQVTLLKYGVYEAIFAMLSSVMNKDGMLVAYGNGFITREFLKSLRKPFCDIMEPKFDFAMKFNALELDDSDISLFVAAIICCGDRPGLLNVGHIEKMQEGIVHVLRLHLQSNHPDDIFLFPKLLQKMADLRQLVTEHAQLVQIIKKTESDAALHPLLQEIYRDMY

[2] = target: T2, Peroxisome proliferator-activated receptor alpha (Homo sapiens, UniProt Q07869); assay: Agonist activity at yeast Gal4-fused human PPARalpha LBD transfected in human HepG2 cells assessed as transactivation by measuring beta-galactosidase activity incubated for 20 hrs by luminometry; format: cell-based
T2 sequence (Q07869 whole entry): T1 sequence (whole entry)

[3] = target: T3, Peroxisome proliferator-activated receptor gamma (Homo sapiens, UniProt P37231); assay: Agonist activity at yeast Gal4-fused human PPARgamma transfected in human HepG2 cells assessed as transactivation by measuring beta-galactosidase activity incubated for 20 hrs by luminometry; format: cell-based
T3 sequence (P37231 whole entry): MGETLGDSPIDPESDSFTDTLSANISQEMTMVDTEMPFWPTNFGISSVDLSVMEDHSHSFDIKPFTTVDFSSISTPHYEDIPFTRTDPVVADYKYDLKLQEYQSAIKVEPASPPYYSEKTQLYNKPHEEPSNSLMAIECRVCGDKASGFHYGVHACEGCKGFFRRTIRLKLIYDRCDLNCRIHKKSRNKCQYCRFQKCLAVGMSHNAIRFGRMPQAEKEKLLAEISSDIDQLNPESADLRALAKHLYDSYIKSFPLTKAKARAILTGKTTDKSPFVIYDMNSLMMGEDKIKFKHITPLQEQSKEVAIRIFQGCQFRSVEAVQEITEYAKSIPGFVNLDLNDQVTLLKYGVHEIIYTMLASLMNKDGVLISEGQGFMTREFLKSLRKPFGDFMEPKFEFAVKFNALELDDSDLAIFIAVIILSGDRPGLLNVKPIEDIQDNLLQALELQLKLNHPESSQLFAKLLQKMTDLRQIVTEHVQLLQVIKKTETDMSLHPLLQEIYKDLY

[4] = target: T4, Peroxisome proliferator-activated receptor delta (Homo sapiens, UniProt Q03181); assay: Agonist activity at yeast Gal4-fused human PPARdelta transfected in human HepG2 cells assessed as transactivation by measuring beta-galactosidase activity incubated for 20 hrs by luminometry; format: cell-based
T4 sequence (Q03181 whole entry): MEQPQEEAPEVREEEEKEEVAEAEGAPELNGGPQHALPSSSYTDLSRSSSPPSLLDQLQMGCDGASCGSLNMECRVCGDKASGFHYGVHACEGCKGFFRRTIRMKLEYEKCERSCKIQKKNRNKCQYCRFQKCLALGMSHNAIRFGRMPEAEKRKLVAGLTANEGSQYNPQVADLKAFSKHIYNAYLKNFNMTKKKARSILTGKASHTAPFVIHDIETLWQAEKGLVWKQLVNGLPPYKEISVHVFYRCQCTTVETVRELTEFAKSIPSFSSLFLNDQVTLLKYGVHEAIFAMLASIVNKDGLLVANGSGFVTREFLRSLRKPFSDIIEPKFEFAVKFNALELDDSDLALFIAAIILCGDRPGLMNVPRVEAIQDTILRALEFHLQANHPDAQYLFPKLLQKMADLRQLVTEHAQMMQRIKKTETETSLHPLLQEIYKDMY

HepaRG [5] = assay: Reduction of lipid accumulation in oleic acid-induced steatosis in human HepaRG cells at 10 uM treated for 2 weeks with media replenishment along with compound and inducer for every 2 days by Oil Red O staining based microscopy; format: functional, cell-based
HepaRG [6] = assay: Reduction of lipid accumulation in oleic acid-induced steatosis in human HepaRG cells at 10 uM treated for 2 weeks with media replenishment along with compound and inducer for every 2 days by spectrophotometry; format: functional, cell-based
[7] = target: T5, Peroxisome proliferator-activated receptor (Homo sapiens) (UniProt P37231+Q07869+Q03181); assay: Agonist activity at PPAR in oleic acid-induced steatosis in human HepaRG cells assessed as increase in FGF21 mRNA levels at 100 uM treated for 2 weeks with media replenishment along with compound and inducer for every 2 days by RT-qPCR analysis; format: cell-based; conditions: filed as agonist
[8] = target: T5, Peroxisome proliferator-activated receptor (Homo sapiens); assay: Agonist activity at PPAR in oleic acid-induced steatosis in human HepaRG cells assessed as increase in liver CPT1a mRNA levels at 100 uM treated for 2 weeks with media replenishment along with compound and inducer for every 2 days by RT-qPCR analysis; format: cell-based; conditions: filed as agonist
HepaRG [9] = assay: Reduction of lipid accumulation in oleic acid-induced steatosis in human HepaRG cells at 100 uM treated for 24 hrs by Oil Red O staining based microscopy; format: functional, cell-based
HepaRG [10] = assay: Reduction of lipid accumulation in oleic acid-induced steatosis in human HepaRG cells at 100 uM treated for 24 hrs by spectrophotometry; format: functional, cell-based
[11] = target: T5, Peroxisome proliferator-activated receptor (Homo sapiens); assay: Agonist activity at PPAR in oleic acid-induced steatosis in human HepaRG cells assessed as increase in PDK4 mRNA levels at 100 uM treated for 24 hrs by RT-qPCR analysis; format: cell-based; conditions: filed as agonist
[12] = target: T5, Peroxisome proliferator-activated receptor (Homo sapiens); assay: Agonist activity at PPAR in oleic acid-induced steatosis in human HepaRG cells assessed as increase in HMGCS2 mRNA levels at 100 uM treated for 24 hrs by RT-qPCR analysis; format: cell-based; conditions: filed as agonist
HepaRG [13] = assay: Reduction of lipid accumulation in oleic acid-induced steatosis in human HepaRG cells at 100 uM treated for 2 weeks with media replenishment along with compound and inducer for every 2 days by spectrophotometry; format: functional, cell-based
[14] = Permeability of compound in human Caco-2 cells; format: ADME, cell-based
HepaRG [15] = assay: Reduction of lipid accumulation in oleic acid-induced steatosis in human HepaRG cells at 100 uM treated for 2 weeks with media replenishment along with compound and inducer for every 2 days by Oil Red O staining based microscopy; format: functional, cell-based
[16] = target: T5, Peroxisome proliferator-activated receptor (Homo sapiens); assay: Agonist activity at PPAR in oleic acid-induced steatosis in human HepaRG cells assessed as increase in FABP1 mRNA levels at 100 uM treated for 2 weeks with media replenishment along with compound and inducer for every 2 days by RT-qPCR analysis; format: cell-based; conditions: filed as agonist
[17] = target: T5, Peroxisome proliferator-activated receptor (Homo sapiens); assay: Agonist activity at PPAR in oleic acid-induced steatosis in human HepaRG cells assessed as increase in FGF21 mRNA levels at 100 uM treated for 24 hrs by RT-qPCR analysis; format: cell-based; conditions: filed as agonist
C2C12 [18] = assay: Induction of 2-NBD-glucose uptake in mouse C2C12 cells at 25 uM incubated in starvation medium with replacement of fresh medium for every 24 hrs for 96 hrs followed by 2-NBD-glucose treatment for 3 hrs by flow cytometric analysis; format: functional, cell-based; conditions: time 99.0 hrs
[19] = target: T5, Peroxisome proliferator-activated receptor (Homo sapiens); assay: Agonist activity at PPAR in oleic acid-induced steatosis in human HepaRG cells assessed as increase in FABP1 mRNA levels at 100 uM treated for 24 hrs by RT-qPCR analysis; format: cell-based; conditions: filed as agonist
[20] = target: T5, Peroxisome proliferator-activated receptor (Homo sapiens); assay: Agonist activity at PPAR in oleic acid-induced steatosis in human HepaRG cells assessed as increase in HMGCS2 mRNA levels at 100 uM treated for 2 weeks with media replenishment along with compound and inducer for every 2 days by RT-qPCR analysis; format: cell-based; conditions: filed as agonist
C2C12 [21] = assay: Induction of 2-NBD-glucose uptake in mouse C2C12 cells at 25 uM incubated in starvation medium with replacement of fresh medium for every 24 hrs for 96 hrs followed by insulin stimulation for 30 mins followed by 2-NBD-glucose treatment for 3 hrs by flow cytometric analysis; format: functional, cell-based; conditions: time 99.5 hrs
HepaRG [22] = assay: Reduction of lipid accumulation in oleic acid-induced steatosis in human HepaRG cells at 250 uM treated for 2 weeks with media replenishment along with compound and inducer for every 2 days by spectrophotometry; format: functional, cell-based
HepaRG [23] = assay: Reduction of lipid accumulation in oleic acid-induced steatosis in human HepaRG cells at 250 uM treated for 2 weeks with media replenishment along with compound and inducer for every 2 days by Oil Red O staining based microscopy; format: functional, cell-based

Row | SMILES | Emax ([1]; filed as agonist) [%] | pEC50 [2] | pEC50 [3] | further results
1 | CC(C)(C)OC(=O)NC(COCc1ccc(C(=O)c2ccccc2)cc1)C(=O)O (stereo not given) | 49 | 4.92 | 4.70 | –
2 | O=C(NC(CSCc1ccc(C(=O)c2ccccc2)cc1)C(=O)O)c1ccccc1 (stereo not given) | – | – | – | Emax [1]: 21%
3 | COc1ccc(C(=O)c2ccc(CSCC(NC(=O)OC(C)(C)C)C(=O)O)cc2)cc1 (stereo not given) | 99 | 6.42 | 5.12 | –
4 | CC(SCc1ccccc1)C(NC(=O)c1ccccc1)C(=O)O (stereo not given) | 48 | 5.04 | – | –
5 | CC(C)(C)OC(=O)NC(CSCc1ccc(C(=O)c2ccc(C(F)(F)F)cc2)cc1)C(=O)O (stereo not given) | 77 | 6.60 | 5.66 | –
6 | CN(CCOc1ccc(CC2SC(=O)NC2=O)cc1)c1ccccn1 (stereo not given) | – | – | – | Activity (HepaRG [5]): Active; Activity (HepaRG [6]): Active
7 | CC(C)(C)OC(=O)NC(COCc1ccc(-c2ccccc2)cc1)C(=O)O (stereo not given) | 100 | 5.14 | 4.89 | –
8 | Cc1ccc(C(=O)c2ccc(CSCC(NC(=O)OC(C)(C)C)C(=O)O)cc2)cc1 (stereo not given) | 89 | 6.03 | 5.34 | –
9 | CC(C)OC(=O)C(C)(C)Oc1ccc(C(=O)c2ccc(Cl)cc2)cc1 | – | – | – | Activity (HepaRG [22]): Active; Activity (HepaRG [23]): Active
10 | CC(C)(C)OC(=O)NC(CSCc1ccc(C(=O)c2ccc([N+](=O)[O-])cc2)cc1)C(=O)O (stereo not given) | 103 | 5.32 | 4.89 | –

Second part, led by results:

Row | Emax ([1]; filed as agonist) [%] | pEC50 [2] | pEC50 [3] | SMILES | further results
11 | 94 | 6.10 | 4.99 | CC(C)(C)OC(=O)NC(CSCc1ccc(/C=C/C(=O)c2ccccc2)cc1)C(=O)O (stereo not given) | –
12 | 83 | 5.80 | 4.99 | CC(C)(C)OC(=O)NC(CSCc1ccc(C(=O)c2ccccc2)cc1)C(=O)O (stereo not given) | pEC50 [4]: 4.43
13 | 118 | 5.84 | 4.59 | CC(C)(C)OC(=O)NC(CSCc1ccccc1)C(=O)O (stereo not given) | –
14 | 64 | 6.24 | 5.47 | CC(C)(C)OC(=O)NC(CSCc1ccc(Cc2ccccc2)cc1)C(=O)O (stereo not given) | –
15 | 52 | 5.00 | – | CC(C)(C)OC(=O)NC(COCc1ccc(Cc2ccccc2)cc1)C(=O)O (stereo not given) | –
16 | 165 | 7.80 | – | O=C(NC(CSCc1ccc(Cc2ccc(Cl)cc2)cc1)C(=O)O)OCc1ccccc1 (stereo not given) | –
17 | 138 | 6.87 | – | O=C(NC(CSCc1ccc(-c2ccc(Cl)cc2)cc1)C(=O)O)OCc1ccccc1 (stereo not given) | –
18 | 148 | 5.59 | 4.96 | O=C(Cc1ccccc1)NC(CSCc1ccccc1)C(=O)O (stereo not given) | –
19 | 90 | 5.72 | 5.10 | O=C(NC(CSCc1ccc(C(=O)c2ccccc2)cc1)C(=O)O)OCc1ccccc1 (stereo not given) | –
20 | 108 | 5.80 | 5.08 | CC(C)(C)OC(=O)N[C@@H](CSCc1ccc(C(=O)c2ccccc2)cc1)C(=O)O | Activity [7]: Active; Activity [8]: Active; Activity (HepaRG [9]): Active; Activity (HepaRG [10]): Active; Activity [11]: Active; Activity [12]: Active; Activity (HepaRG [13]): Active; pEC50 [4]: 4.55; permeability [14]: Permeable; Activity (HepaRG [15]): Active; Activity [16]: Active; Activity [17]: Active; Activity (C2C12 [18]): Active; Activity [19]: Active; Activity [20]: Active; Activity (C2C12 [21]): Active
21 | 108 | 6.15 | 5.41 | CC(C)(C)OC(=O)NC(CSCc1ccc(-c2ccccc2)cc1)C(=O)O (stereo not given) | –
22 | 95 | 6.43 | 5.49 | CC(C)(C)OC(=O)NC(CSCc1ccc(C(=O)c2ccc(Cl)cc2)cc1)C(=O)O (stereo not given) | –
